Laboratory results: paper PMC10579241, “Impact of trifluoromethyl and sulfonyl groups on the biological activity of novel aryl-urea derivatives: synthesis, in-vitro, in-silico and SAR studies” (Scientific Reports, 2023)
Values after ≈ are worked out from the molar mass of the structure shown. Where two headings read alike, the source gives them in different places.

What was measured:
Assay type in all cases: cell-based
Escherichia coli [1] = test: Agar well diffusion, E. coli; details: Escherichia coli, read-out: Inhibition zones diameter; for zone of inhibition at 10 µg/disc: reference antibiotic 10 mcg
Candida albicans [2] = test: Agar well diffusion, C. albicans; details: for zone of inhibition at 10 µg/disc: reference antibiotic 10 mcg
Bacillus mycoides [3] = test: microbe, parasite or virus in culture
Escherichia coli [4] = test: MIC by serial dilution (agar wells), E. coli
Bacillus mycoides [5] = test: microbe, parasite or virus in culture; remark: listed apart in the source
skin cancer (A431) = test: cells; details: Homo sapiens, A-431, 100 μg/mL, 48 h
prostate cancer (PC3) = test: cells; details: Homo sapiens, 48 h; for mortality at 100 µg/mL: 100 μg/mL
[6] = test system: pancreatic cancer cell line (PACA2); test: cells; details: Homo sapiens, PaCa-2, 48 h; for mortality at 100 µg/mL: 100 μg/mL
[7] = test system: osteosarcoma cell line (HOS); test: cells; details: Homo sapiens, 48 h, 100 μg/mL
[8] = test system: human lung carcinoma (A549); test: cells; details: for mortality at 100 µg/mL: A549, 48 h, 100 μg/mL
Candida albicans [9] = test: MIC by serial dilution (agar wells), C. albicans
colon cancer (HCT116) = test: cells; details: Homo sapiens; for mortality at 100 µg/mL: HCT-116, 48 h, 100 μg/mL
in vitro = details: human, BJ1 normal skin fibroblast cells, 100 μg/mL
[10] = test system: hepatocellular carcinoma cell line (HePG2); test: cells; details: Homo sapiens, 48 h
[11] = Candida albicans, C. albicans, read-out: Inhibition zones diameter
[12] = Bacillus mycoides, read-out: Inhibition zones diameter
[13] = 0.00488 mg/mL, 150 µL in DMSO, 15 mm agar well
[14] = 0.00975 mg/mL, 150 µL in DMSO, 15 mm agar well
[15] = 0.0195 mg/mL, 150 µL in DMSO, 15 mm agar well
[16] = 0.0391 mg/mL, 150 µL in DMSO, 15 mm agar well
[17] = 0.0781 mg/mL, 150 µL in DMSO, 15 mm agar well
[18] = 0.1563 mg/mL, 150 µL in DMSO, 15 mm agar well
[19] = 0.3125 mg/mL, 150 µL in DMSO, 15 mm agar well
[20] = 0.625 mg/mL, 150 µL in DMSO, 15 mm agar well
[21] = 1.25 mg/mL, 150 µL in DMSO, 15 mm agar well
[22] = 2.50 mg/mL, 150 µL in DMSO, 15 mm agar well
[23] = 5.00 mg/mL, 150 µL in DMSO, 15 mm agar well
[24] = 10.0 mg/mL, 150 µL in DMSO, 15 mm agar well
[25] = read-out: Minimum inhibition concentration (MIC)
[26] = Candida albicans, read-out: Inhibition zones diameter

## CNC(C)C1CCC(N)C(OC2C(N)CC(N)C(OC3OCC(C)(O)C(NC)C3O)C2O)O1 (stereo not drawn) [Gentamicin, reference compound]
Escherichia coli [1]; E. coli
  zone of inhibition at 10 µg/disc: 12 ± 0.18 mm
Candida albicans [2]; [11]
  zone of inhibition at 10 µg/disc: 12 ± 0.89 mm
Bacillus mycoides [3]; [12]
  zone of inhibition at 10 µg/disc: 11 ± 0.43 mm

## CC[C@H]1OC(=O)[C@H](C)[C@@H](O[C@H]2C[C@@](C)(OC)[C@@H](O)[C@H](C)O2)[C@H](C)[C@@H](O[C@@H]2O[C@H](C)C[C@H](N(C)C)[C@H]2O)[C@](C)(O)C[C@@H](C)C(=O)[C@H](C)[C@@H](O)[C@]1(C)O [Erythromycin, reference compound]
Escherichia coli [1]; E. coli, reference antibiotic 15 mcg
  zone of inhibition at 15 µg/disc: 29 ± 2.13 mm
Candida albicans [2]; Candida albicans, C. albicans, reference antibiotic 15 mcg, read-out: Inhibition zones diameter
  zone of inhibition at 15 µg/disc: 25 mm
Bacillus mycoides [3]; [12]
  zone of inhibition at 15 µg/disc: 17 ± 0.15 mm

## Cc1ccc(S(=O)(=O)NC(=O)Nc2ccccc2C(F)(F)F)cc1 [Compound 11, 4-Methyl-N-[(2-{trifluoromethyl}phenyl)carbamoyl]benzenesulfonamide]
Escherichia coli [4]; [13]
  zone of inhibition at 4.88 µg/mL: 0 mm
Escherichia coli [4]; [14]
  zone of inhibition at 9.75 µg/mL: 0 mm
Escherichia coli [4]; [15]
  zone of inhibition at 19.5 µg/mL: 0 mm
Escherichia coli [4]; [16]
  zone of inhibition at 39.1 µg/mL: 0 mm
Escherichia coli [4]; [17]
  zone of inhibition at 78.1 µg/mL: 0 mm
Escherichia coli [4]; [18]
  zone of inhibition at 156.3 µg/mL: 16 mm
Escherichia coli [4]; [19]
  zone of inhibition at 312.5 µg/mL: 18 mm
Escherichia coli [4]; [20]
  zone of inhibition at 625 µg/mL: 20 mm
Escherichia coli [4]; [21]
  zone of inhibition at 1250 µg/mL: 22 mm
Escherichia coli [4]; [22]
  zone of inhibition at 2500 µg/mL: 24 mm
Escherichia coli [4]; [23]
  zone of inhibition at 5000 µg/mL: 28 mm
Escherichia coli [4]; [24]
  zone of inhibition at 10000 µg/mL: 30 mm
Escherichia coli [4]; [25]
  MIC: 156 mg/L (≈ 436 µM)
Bacillus mycoides [5]; read-out: Inhibition zone
  zone of inhibition at 4.88 µg/mL: 0 mm
  zone of inhibition at 9.75 µg/mL: 0 mm
  zone of inhibition at 19.5 µg/mL: 0 mm
  zone of inhibition at 39.1 µg/mL: 15 mm
  zone of inhibition at 78.1 µg/mL: 16 mm
  zone of inhibition at 156.3 µg/mL: 16 mm
  zone of inhibition at 312.5 µg/mL: 17 mm
  zone of inhibition at 625 µg/mL: 17 mm
  zone of inhibition at 1250 µg/mL: 18 mm
  zone of inhibition at 2500 µg/mL: 22 mm
  zone of inhibition at 5000 µg/mL: 24 mm
  zone of inhibition at 10000 µg/mL: 27 mm
Bacillus mycoides [5]; [25]
  MIC: 39.1 mg/L (≈ 109 µM)
Skin cancer (A431)
  mortality at 100 µg/mL: 10.5 ± 1.13%
Prostate cancer (PC3); MTT
  IC50: 114.7 ± 0.21 µM
[6]; MTT
  IC50: 80.7 µM
Escherichia coli [1]
  zone of inhibition at 10000 µg/mL: 27 ± 0.58 mm
[7]
  mortality at 100 µg/mL: 44.2 ± 1.11%
[8]; MTT, 48 h
  IC50: 149.3 ± 0.23 µM
Candida albicans [9]; [13]
  zone of inhibition at 4.88 µg/mL: 0 mm
Candida albicans [9]; [14]
  zone of inhibition at 9.75 µg/mL: 0 mm
Candida albicans [9]; [15]
  zone of inhibition at 19.5 µg/mL: 0 mm
Candida albicans [9]; [16]
  zone of inhibition at 39.1 µg/mL: 0 mm
Candida albicans [9]; [17]
  zone of inhibition at 78.1 µg/mL: 16 mm
Candida albicans [9]; [18]
  zone of inhibition at 156.3 µg/mL: 17 mm
Candida albicans [9]; [19]
  zone of inhibition at 312.5 µg/mL: 20 mm
Candida albicans [9]; [20]
  zone of inhibition at 625 µg/mL: 22 mm
Candida albicans [9]; [21]
  zone of inhibition at 1250 µg/mL: 24 mm
Candida albicans [9]; [22]
  zone of inhibition at 2500 µg/mL: 25 mm
Candida albicans [9]; [23]
  zone of inhibition at 5000 µg/mL: 26 mm
Candida albicans [9]; [24]
  zone of inhibition at 10000 µg/mL: 28 mm
Candida albicans [9]; [25]
  MIC: 78.1 mg/L (≈ 218 µM)
Candida albicans [2]; C. albicans, 200 μL of 10 mg/mL in DMSO in 15 mm holes, overnight 37 °C
  Inhibition zones diameter: 32 ± 0.17 mm
Candida albicans [2]; [26]
  zone of inhibition at 10000 µg/mL: 32 mm
Colon cancer (HCT116)
  mortality at 100 µg/mL: > 75%
Colon cancer (HCT116); HCT-116, MTT, 48 h
  IC50: 161.6 ± 0.24 µM
Bacillus mycoides [3]; B. mycoides, 200 μL of 10 mg/mL in DMSO in 15 mm holes, overnight 37 °C
  Inhibition zones diameter: 31 ± 0.52 mm
Bacillus mycoides [3]; [12]
  zone of inhibition at 10000 µg/mL: 31 mm
In vitro
  mortality at 48 h, 100 µg/mL: 19.2 ± 0.57%

## COc1cc(NC(=O)NS(=O)(=O)c2ccc(C)cc2)cc(OC)c1 [Compound 10, N-[(3,5-Dimethoxyphenyl)carbamoyl]-4-methylbenzenesulfonamide]
Skin cancer (A431)
  mortality at 100 µg/mL: 23.5 ± 0.97%
Prostate cancer (PC3)
  mortality at 100 µg/mL: 35.2 ± 0.89%
[6]
  mortality at 100 µg/mL: > 50%
Escherichia coli [1]
  zone of inhibition at 10000 µg/mL: 22 ± 0.39 mm
[7]
  mortality at 100 µg/mL: 12.3 ± 1.21%
[8]
  mortality at 100 µg/mL: 34.2 ± 1.2%
Candida albicans [2]; [26]
  zone of inhibition at 10000 µg/mL: 21 ± 0.32 mm
Colon cancer (HCT116)
  mortality at 100 µg/mL: 37.5 ± 1.12%
Bacillus mycoides [3]; [12]
  zone of inhibition at 10000 µg/mL: 24 ± 0.87 mm

## Cc1ccc(NC(=O)Nc2ccccc2C(F)(F)F)cc1 [Compound 17, 1-(p-Tolyl)-3-[2-(trifluoromethyl)phenyl]urea]
[10]; 100 μg/mL
  mortality at 100 µg/mL: 71.2 ± 1.45%
[10]; MTT
  IC50: 199.3 ± 0.82 µM
Skin cancer (A431)
  mortality at 100 µg/mL: 3.1 ± 1.14%
Prostate cancer (PC3)
  mortality at 100 µg/mL: > 50%
[6]
  mortality at 100 µg/mL: > 50%
Escherichia coli [1]
  zone of inhibition at 10000 µg/mL: 16 ± 0.54 mm
[7]
  mortality at 100 µg/mL: > 50%
[8]
  mortality at 100 µg/mL: 7.3 ± 0.35%
Candida albicans [2]; [26]
  zone of inhibition at 10000 µg/mL: 15 ± 0.42 mm
Colon cancer (HCT116)
  mortality at 100 µg/mL: 7.5 ± 0.92%
Bacillus mycoides [3]; [12]
  zone of inhibition at 10000 µg/mL: 18 mm

## NC[C@H]1O[C@H](O[C@H]2[C@H](O)[C@@H](O[C@H]3O[C@H](CO)[C@@H](O)[C@H](N)[C@H]3O)[C@H](N)C[C@@H]2N)[C@H](N)C[C@@H]1O [Tobramycin, reference compound]
Escherichia coli [1]; E. coli
  zone of inhibition at 10 µg/disc: 13 ± 0.22 mm
Candida albicans [2]; [11]
  zone of inhibition at 10 µg/disc: 12 ± 0.61 mm
Bacillus mycoides [3]; [12]
  zone of inhibition at 10 µg/disc: 10 ± 0.31 mm
